The test system of test [1] is EMT6 murine breast carcinoma cells. Kind of test: Syngeneic EMT6 murine breast carcinoma model (Example 4). Particulars: EMT6 s.c. in Balb/c mice; DGKalpha inhibitor A 3 mg/kg QD, DGKzeta inhibitor A′ 5 mg/kg QD, plus isotype control 5 mg/kg Q3/4D; treatment day 8 to 23. The test is classed as in vivo. On the procedure: EMT6 murine breast carcinoma cells were inoculated s.c. into Balb/c mice (n=10/group). […] Q3/4D, every third or fourth day; QD, once daily. […] The following eight treatment groups are included: Polyethylene glycol 400 (PEG)/ethanol (EtOH)/water (60/10/30). • 1. Anti-PD-L1 (TPP-3911, 5 mg/kg) i.p., q3/4d • 2. […] DGKzeta inhibitor A' (5 mg/kg) p.o., q.d.+Isotype control (5 mg/kg) i.p., q3/4d • 4. […] Vehicle as described supra, q.d. Mice were assigned to a study at the age of 6-8 weeks. Animal husbandry, feeding and health conditions were according to animal welfare guidelines. EMT6 cell line was cultivated with appropriate medium and split at least 3 times before inoculation. Female Balb/c mice were inoculated subcutaneously with 5×10>5 tumor cells in a medium/matrigel mixture ratio of 1:1. After 8 days the mice were randomized, and therapeutic treatment started when tumors had reached a size of approx. 40-mm^2. Tumor size was measured using calipers determining length (a) and width (b), for results see FIG. 5. Tumor volume was calculated according to: […]

In test [2] the test system is MC38 mouse model. As to the kind of experiment: MC38 mouse model, tumor volume, survival and re-challenge (Example 6). As to conditions: for inhibition of tumor growth: 3 mg/kg p.o. QD each, versus control group; for Tumor volume: each agent 3 mg/kg, antibodies i.p. BIWx4, DGK inhibitors p.o. QD. The test is classed as in vivo. On the procedure:
In order to study triple combinations or quadruple combinations with anti-CCR8 antibodies, at least one DGK inhibitor and an anti-PD(L)1 antibody, multiple experiments were performed. In order to see the differences in efficacy, the administered amounts for each individual compound or antibody were reduced to 3 mg/kg to avoid full efficacy in a monotherapy setup and to be able to evaluate the efficacy for triple and quadruple combination therapy.
Efficacy in a MC38 mouse model was analyzed in groups with 10 mice each and is shown in Table 6.1 and FIGS. 8, 9 and 10. • TPP-15285 (mIgG2a) is a surrogate antibody for anti-CCR8 antibody TPP-23411 and induces both, ADCC and ADCP. TPP-15285 was administered i.p. at 3 mg/kg with a BIWx4 administration scheme. • TPP-10748 (Iso Ctrl aCCR8) served as isotype control for TPP-15285 (mIgG2a) and was administered i.p. at 3 mg/kg with a BIWx4 administration scheme. • TPP-3911 (Atezo, mIgG1) was used as anti-PD(L)1 antibody (e.g. pembrolizumab surrogate) and was administered i.p. at 3 mg/kg with a BIWx4 administration scheme. • TPP-3267 or TPP-10149 (mIgG1) served as isotype control for anti-PD(L)1 antibody TPP-3911 (mIgGa) and were abbreviated Iso Ctrl aPD(L)1.
Antibody treatment was started on ~day 7 after tumor inoculation at ~80-100 mm^3 tumor volume, i.e. antibody administration occurred on days 7, 10, 14 and 17, after tumor inoculation. DGK inhibitor treatment started two days after the first antibody administration, i.e. on ~day 9 after tumor inoculation, i.e. DGK inhibitor was administered on day 9, 10, 11, 12, 13, 14, 15, 16, 17, 18, 19, 20 and 21 after tumor inoculation. Tumor growth inhibition was measured until tumors reached a size of 1100 mm^3 (approx. Day 20 after tumor inoculation).

The subject of test [3] is Human PBMCs. As to the kind of experiment: Activation of PBMC cells (CD25+ of CD8+ naïve T-cells, flow cytometry). The format is cell-based. On the procedure: In addition to the experimental determination according to the protocol provided below, said proportion of CD25+ cells withing the CD8+ naïve T-cells was simulated according to Meyer et al., 2019, Cell Systems 8, 97-108, Feb. 27, 2019.
The relative amount of activated (CD25+) naïve CD8 T cells were analyzed by flow cytometry. Non-stimulated cells served as negative control, cells stimulated with 30 ng/ml aCD3/aCD28/IgG were used as positive control.

Test [4] deals with T1, human DGKzeta (Homo sapiens, UniProt Q13574).
T1 construct: C-terminally FLAG-tagged, recombinant full-length human DGKζ; made in house; host or cells: baculovirus-infected insect cells
T1 sequence (Q13574 whole entry): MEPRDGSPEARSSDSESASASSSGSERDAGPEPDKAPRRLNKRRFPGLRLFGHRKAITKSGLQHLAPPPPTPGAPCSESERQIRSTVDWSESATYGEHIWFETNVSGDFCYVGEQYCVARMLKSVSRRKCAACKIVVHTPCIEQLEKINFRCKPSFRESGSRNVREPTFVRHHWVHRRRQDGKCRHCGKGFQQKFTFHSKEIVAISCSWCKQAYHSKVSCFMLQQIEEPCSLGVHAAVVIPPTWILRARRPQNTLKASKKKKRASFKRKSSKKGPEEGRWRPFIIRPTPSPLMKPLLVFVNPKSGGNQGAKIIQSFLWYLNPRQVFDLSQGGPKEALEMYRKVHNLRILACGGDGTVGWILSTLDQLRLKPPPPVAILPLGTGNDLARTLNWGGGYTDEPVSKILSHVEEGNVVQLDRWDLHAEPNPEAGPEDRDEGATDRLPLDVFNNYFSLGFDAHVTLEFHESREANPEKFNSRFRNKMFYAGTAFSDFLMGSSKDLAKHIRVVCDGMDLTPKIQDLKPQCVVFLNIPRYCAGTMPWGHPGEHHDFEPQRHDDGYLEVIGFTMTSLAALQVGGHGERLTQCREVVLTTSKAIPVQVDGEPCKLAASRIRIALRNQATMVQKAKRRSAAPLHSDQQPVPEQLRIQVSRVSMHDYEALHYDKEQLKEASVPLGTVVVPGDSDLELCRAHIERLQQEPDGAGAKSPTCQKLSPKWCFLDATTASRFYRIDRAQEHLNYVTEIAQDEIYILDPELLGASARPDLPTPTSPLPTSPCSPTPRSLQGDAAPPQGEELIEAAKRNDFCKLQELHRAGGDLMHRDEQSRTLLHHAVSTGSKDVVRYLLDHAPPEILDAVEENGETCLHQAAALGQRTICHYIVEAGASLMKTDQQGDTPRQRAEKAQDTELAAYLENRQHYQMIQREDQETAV
As to the kind of experiment: Human DGKzeta kinase activity inhibition assay (ADP-Glo). The test is classed as biochemical. As to conditions: read-out: IC50 hDGKz. On the procedure:
Human diacylglycerol kinase zeta (DGKζ) inhibitory activity of compounds of the present invention was quantified employing the human DGKζ kinase activity assay as described in the following paragraphs. In essence, the enzyme activity was measured by quantification of the adenosine-di-phosphate (ADP) generated as a co-product of the enzyme reaction via the “ADP-Glo™ Kinase Assay” kit from the company Promega. This detection system works as follows: In a first step the adenosine-tri-phosphate (ATP) not consumed in the kinase reaction is quantitatively converted to cyclic adenosine-mono-phosphate (cAMP) employing an adenylate cyclase (“ADP-Glo-reagent”), then the adenylate cyclase is stopped and the ADP generated in the kinase reaction is converted to ATP, which subsequently generates in a luciferase-based reaction a glow-luminescence signal (“Kinase Detection Reagent”).
C-terminally FLAG-tagged, recombinant full-length human DGKζ (inhouse expressed in baculovirus infected insect cells, purified using anti-Flag pulldown and size exclusion chromatography) was used as enzyme. As an alternative, commercially available enzyme by Carnabio can be used. As substrate for the kinase, 1,2-dioleoyl-sn-glycerol, reconstituted in octyl-β-D-glucopyranoside micelles, was used. […] Then 35 volumes of 50 mM MOPS buffer (pH 7.4) were added to yield a solution of 0.28 mM 1,2 dioleoyl-sn-glycerol and 200 mM octyl-β-D-glucopyranoside, which was aliquoted, flash-frozen in liquid nitrogen, and stored at −20° C. until use.
For the assay 50 nl of a 100-fold concentrated solution of the test compound in dimethyl sulfoxide (DMSO, Sigma) was pipetted into either a white 1536-well or a white low-volume 384-well microtiter plate (both Greiner Bio-One, Frickenhausen, Germany). […] The concentration of DGKζ was adjusted depending of the activity of the enzyme lot and was chosen appropriate to have the assay in the linear range, a typical concentration is about 0.1 nM. The reaction was stopped by the addition of 2.5 μL of “ADP-Glo-reagent” (1 to 1.5 diluted with water) and the resulting mixture was incubated at 22° C. for 1 h to convert the ATP not consumed in the kinase reaction completely to cAMP. […] The amount of emitted light was taken as a measure for the amount of ADP generated and thereby for the activity of the DGKζ.

Where [5] appears, read: 4 days after start of treatment.
[6] abbreviates: 7 days after start of treatment.
[7] abbreviates: 10 days after start of treatment.
[8] abbreviates: 12 days after start of treatment.
Where [9] appears, read: 14 days after start of treatment.
Where [10] appears, read: 17 days after start of treatment.
[11] abbreviates: −1 days after start of treatment (6 days after start of transplantation).

Where “and” joins values, the source holds several entries; their conditions need not be identical. Equal values may be shown once.

Consider `COc1ccc(C(=O)c2sc(N(c3ccc(F)cc3)[C@H](C)C(N)=O)nc2N)cc1` [DGKzeta inhibitor A′, (R)-2-(N-[4-amino-5-(4-methoxybenzoyl)thiazol-2-yl]-4-fluoro-anilino)propanamide], for which the tumor growth inhibition entry in test [1] is given as “only moderate tumor growth inhibitions”. The “inhibition of tumor growth” value in test [2] is reported as “only moderate inhibition of tumor growth”. For the same compound, the Tumor volume in test [2] (setting [5]) is on record as 115.9 mm^3; in test [2] (setting [6]) it was 211.9 mm^3; in test [2] (setting [7]), 322.0 mm^3; in test [2] (setting [8]) it was 508.0 mm^3; in test [2] (setting [9]), 684.4 mm^3; in test [2] (setting [10]) it was 1097.3 mm^3. The Tumor volume in test [2] (setting [11]) stood at 62.4 mm^3. In addition, the “CD25+ of CD8+ naïve T-cells, Observed” value in test [3] (unbound DGKai 0 nM, DGKzi 0.037 nM) is 2% and 3.2%; in test [3] (unbound DGKai 0 nM, DGKzi 0.37 nM), 1.7% and 1.6% and 4.2%; in test [3] (unbound DGKai 0 nM, DGKzi 3.7 nM), 6% and 4.9% and 6.4%; in test [3] (unbound DGKai 0 nM, DGKzi 11 nM) it was 15% and 10%; in test [3] (unbound DGKai 0 nM, DGKzi 37 nM), 29% and 18%; in test [3] (unbound DGKai 0 nM, DGKzi 111 nM), 34% and 25% and 35%. Also, the “CD25+ of CD8+ naïve T-cells, Observed” value in test [3] (unbound DGKai 0 nM, DGKzi 370 nM) was 32% and 44% and 31%.
In general, IC50 refers to the point on the concentration scale where inhibition reaches its midpoint. On to `Cc1ccc2oc(C3CCN(c4c(C(N)=O)c(=O)n(C)c5ccc(F)cc45)CC3)nc2c1` [DGKalpha inhibitor A, 6-fluoro-1-methyl-4-[4-(5-methyl-1,3-benzoxazol-2-yl)piperidin-1-yl]-2-oxo-1,2-dihydroquinoline-3-carboxamide], for which the tumor growth inhibition result in test [1] is listed as “only moderate tumor growth inhibitions”. The “inhibition of tumor growth” value in test [2] was “only moderate inhibition of tumor growth”. Moreover, the Tumor volume turned out to be 134.0 mm^3 in test [2] (setting [5]); 207.0 mm^3 in test [2] (setting [6]); 412.4 mm^3 in test [2] (setting [7]); 524.8 mm^3 in test [2] (setting [8]); 735.4 mm^3 in test [2] (setting [9]); 1122.5 mm^3 in test [2] (setting [10]). Also, in test [2] (setting [11]), the Tumor volume came out at 62.0 mm^3. Besides, the IC50 in test [4] stood at 17.2 µM. The “CD25+ of CD8+ naïve T-cells, Observed” value in test [3] (unbound DGKai 0.024 nM, DGKzi 0 nM) is 4.1% and 3.1% and 12%; in test [3] (unbound DGKai 0.24 nM, DGKzi 0 nM) it was 3.4% and 5.1% and 6.4%; in test [3] (unbound DGKai 2.4 nM, DGKzi 0 nM) it was 8.3% and 2.1% and 5%; in test [3] (unbound DGKai 24 nM, DGKzi 0 nM) it was 6.8% and 5.4% and 7.3%; in test [3] (unbound DGKai 72 nM, DGKzi 0 nM), 9% and 6.7% and 12%.

The record behind these values is patent US20260232652A1, “COMBINATIONS OF DGK (DIACYLGLYCEROL KINASE) INHIBITORS” (priority 2023, published 2026).
